Laboratory results reported in publication PMC7822874, “Chemoprotective antimalarials identified through quantitative high-throughput screening of Plasmodium blood and liver stage parasites” (Scientific Reports, 2021).
“And” between values parts separate entries of the source, which are not always exact repeats. Identical values can stand only once.

Key:
[1] = test system: T1, Plasmodium falciparum Dd2-attB (parental line), asexual blood stages; assay: microbe, parasite or virus in culture; parameters: replicate k of 3 (each line is one of three independent assays; the three lines of one compound and parasite line follow each other); conditions: n = 1; for AC50: Plasmodium falciparum, DD2, 72 h, read-out: Individual replicates / Log AC50 (converted); for Individual replicates / Log AC50 (M): 72 h
T1 construct: Dd2-attB, the isogenic parental line
Outline: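 Statistics: two-sided Student's t-test between parental and transgenic values, from three independent assays. The transgene encodes a fumarate-dependent DHODH from yeast, independent of the parasite mETC.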

[2] = test system: T2, Plasmodium falciparum Dd2-attB-ScDHODH (transgenic line expressing yeast DHODH), asexual blood stages; assay: organism not typed; parameters: replicate k of 3 (each line is one of three independent assays; the three lines of one compound and parasite line follow each other)
T2 construct: Dd2-attB-ScDHODH, the transgenic line that expresses yeast DHODH
Description: The overexpression of the fumarate-dependent yeast DHODH confers resistance to compounds that inhibit the parasite mETC, or the parasite DHODH enzyme that depends on ubiquinone provided by the parasite mETC. Assays were performed in three independent assays on a subset of compounds, and differences between the Dd2-attB parental line and the ScDHODH transgenic line were analyzed using two-sided Student’s t-tests.

[3] = 72 h; n = 1; read-out: Individual replicates / Log AC50 (converted)

Row | Compound | AC50 [1] | AC50 [2, 3] | Individual replicates / Log AC50 (M) [1] | Individual replicates / Log AC50 (M) ([2]; 72 h, n = 1) | Individual replicates / Log AC50 (M) ([2]; 72 h; n = 1)
1 | NC(=O)c1cccc(-c2cnc3c(O)ccc(C(=O)O)c3c2)c1 [NCGC00241055-01] | 15.9 µM | 14.2 µM | – | – | –
2 | Oc1cc(-c2ccc(CN3CCOCC3)cc2)cc2cccnc12 [NCGC00247750-01] | 5.03 µM | 5.03 µM | -5.2986 Log AC50 (M) and -5.3986 Log AC50 (M) | -5.2986 Log AC50 (M) and -5.1486 Log AC50 (M) | –
3 | O=C(NCCCN1CCCC1)c1cccc(-c2cc(O)c3ncccc3c2)c1 [NCGC00247742-01] | 17.8 µM | 17.8 µM | -4.7986 Log AC50 (M) | – | -4.7486 Log AC50 (M)
4 | O=C(NCCCc1ccccc1)c1cccc(-c2cc(O)c3ncccc3c2)c1 [NCGC00244536-01] | 7.1 µM | – | -5.2486 Log AC50 (M) and -5.1986 Log AC50 (M) | -4.8986 Log AC50 (M) | –
5 | CN(C)C(=S)SN(C)C(=O)Nc1ccccc1 [NCGC00386444-01] | 1.78 µM | 2.25 µM | -5.7986 Log AC50 (M) | -5.7986 Log AC50 (M) | –
6 | COC(=O)c1ccc(O)c2ncc(NC3CCNC3)cc12 (stereo not shown) [NCGC00241040-01] | 14.2 µM | 15.9 µM | -4.7486 Log AC50 (M) and -4.8486 Log AC50 (M) | – | -4.7986 Log AC50 (M)
7 | CN(C)CCCNC(=O)c1ccc(-c2cnc3c(O)cccc3c2)cc1 [NCGC00189502-01] | 7.1 µM | 7.97 µM | -4.9986 Log AC50 (M) | -5.0486 Log AC50 (M) and -4.8986 Log AC50 (M) | –
8 | CN1CCN(C2CCN(Cc3ccc(O)c4ncccc34)CC2)CC1 [NCGC00183373-01] | 17.8 µM | 15.9 µM | – | – | –
9 | O=C(O)c1ccc(O)c2ncc(N3CCC(N4CCOCC4)C3)cc12 (stereo not shown) [NCGC00241757-01] | 10 µM | 15.9 µM | -4.9486 Log AC50 (M) and -4.7986 Log AC50 (M) | – | -4.7986 Log AC50 (M)
10 | Oc1ccc(/C=C/c2ccccc2)c2cccnc12 [NCGC00184900-01] | 6.33 µM | – | -5.2486 Log AC50 (M) and -5.2986 Log AC50 (M) | -5.1986 Log AC50 (M) and -4.7986 Log AC50 (M) | –
11 | Oc1ccc(CNc2cc(Cl)ccn2)c2cccnc12 [NCGC00241028-01] | 5.03 µM | 6.33 µM | -5.2986 Log AC50 (M) | -5.3486 Log AC50 (M) and -5.2986 Log AC50 (M) | –
12 | Oc1ccc(COCc2ccc(F)cc2)c2cccnc12 [NCGC00183381-01] | 17.8 µM | 15.9 µM | -4.7986 Log AC50 (M) | -4.7486 Log AC50 (M) and -4.7986 Log AC50 (M) | –
13 | COC(=O)c1ccnc2cc(C(OCCC3CCCCC3)c3ccccc3Cl)[nH]c12 (stereo not shown) [NCGC00421833-01] | 15.9 µM | 17.8 µM | -4.7986 Log AC50 (M) and -4.7486 Log AC50 (M) | -4.7486 Log AC50 (M) and -4.7986 Log AC50 (M) | –
14 | CN(C)CCn1nc(-c2ccccc2O)nc1-c1ccccc1 [NCGC00390082-01] | 14.2 µM | 12.6 µM | -4.7486 Log AC50 (M) and -4.8486 Log AC50 (M) | -4.7986 Log AC50 (M) | –
15 | COc1ccc(NCc2ccc(O)c3ncccc23)nc1 [NCGC00241022-01] | 20 µM | 11.3 µM | -4.8486 Log AC50 (M) | -4.9486 Log AC50 (M) | –
16 | Cc1nnc2c3ccccc3nc(N3CCN(c4ccccc4)CC3)n12 [NCGC00107295-01] | 15.9 µM | 14.2 µM | -4.7986 Log AC50 (M) | – | –

Row | Compound | AC50 [1] | AC50 [2, 3] | Individual replicates / Log AC50 (M) [1] | Individual replicates / Log AC50 (M) ([2]; 72 h, n = 1) | Individual replicates / Log AC50 (M) ([2]; 72 h; n = 1)
17 | O=C(/C=C/c1cn(CC(O)CN2CCCCCC2)c2ccccc12)c1ccc(Br)cc1 (stereo not shown) [NCGC00114921-03] | 4.48 µM | 4.48 µM | -5.2486 Log AC50 (M) and -5.0986 Log AC50 (M) | -5.0486 Log AC50 (M) and -5.1986 Log AC50 (M) | –
18 | COC(=O)c1ccc(O)c2ncc(-c3ccc(C(=O)N4CCNCC4)cc3)cc12 [NCGC00189509-01] | 5.64 µM | 5.64 µM | -5.0486 Log AC50 (M) and -5.1486 Log AC50 (M) | -4.9486 Log AC50 (M) and -5.0986 Log AC50 (M) | –
19 | CCCCOC(=O)c1ccnc2cc(C(=O)N(CCN(C)C)c3ccccc3)sc12 [NCGC00481684-01] | 17.8 µM | 14.2 µM | -4.7986 Log AC50 (M) | – | –
20 | Oc1cc(NCCN2CCOCC2)cc2cccnc12 [NCGC00183799-01] | 6.33 µM | 8.94 µM | -5.1486 Log AC50 (M) and -5.2486 Log AC50 (M) | – | –
21 | Oc1ccc(-c2ccccc2F)c2cccnc12 [NCGC00184901-01] | 15.9 µM | 14.2 µM | -4.8486 Log AC50 (M) and -4.8986 Log AC50 (M) | -4.8486 Log AC50 (M) and -4.7986 Log AC50 (M) | –
22 | CN(C)[S+](=O)([O-])c1cccc(-c2cc(O)c3ncccc3c2)c1 [NCGC00247754-01] | 5.64 µM | 5.03 µM | -5.2986 Log AC50 (M) | -5.2986 Log AC50 (M) and -5.1486 Log AC50 (M) | –
23 | O=C(O)c1ccc(O)c2ncc(-c3ccc(N4CCOCC4)cc3)cc12 [NCGC00241754-01] | 15.9 µM | 14.2 µM | -4.7986 Log AC50 (M) | – | –
24 | Cn1cnc(-c2nccc3c(O)nc(OCCCC(F)(F)F)nc23)c1 [NCGC00381768-01] | 15.9 µM | 17.8 µM | -4.7486 Log AC50 (M) and -4.7986 Log AC50 (M) | – | -4.7486 Log AC50 (M)
25 | O=C(Nc1ccccc1F)c1ccc(Cn2nc(N3CCN(c4ccccc4)CC3)ccc2=O)o1 [NCGC00127944-02] | 7.97 µM | 8.94 µM | -5.1486 Log AC50 (M) and -5.0986 Log AC50 (M) | -5.0986 Log AC50 (M) and -5.0486 Log AC50 (M) | –
26 | O=C(O)c1ccnc(-n2ncc(C(OCCN3CCCCC3)c3cccc(-c4ccccc4)c3)c2-c2cccc(-c3ccccc3)c2)c1 (stereo not shown) [NCGC00487052-01] | 4.48 µM | – | -5.3986 Log AC50 (M) | -5.4986 Log AC50 (M) and -5.2986 Log AC50 (M) (2×) | –
27 | CN1CCC(CNCc2nccc3c(=O)[nH]c(COc4ccc(Cc5ccccc5)cc4)nc23)C1 (stereo not shown) [NCGC00489856-01] | 15.9 µM | 17.8 µM | -4.7986 Log AC50 (M) and -4.8486 Log AC50 (M) | – | –
28 | CN(C)CCCNC(=O)c1ccc(-c2cc(O)c3ncccc3c2)cc1 [NCGC00183808-03] | 14.2 µM | 12.6 µM | -4.9486 Log AC50 (M) and -4.8986 Log AC50 (M) | -4.8486 Log AC50 (M) | –
29 | Oc1ccc(Oc2ccccc2F)c2cccnc12 [NCGC00184907-01] | 8.94 µM | 14.2 µM | -4.9986 Log AC50 (M) and -5.0486 Log AC50 (M) | -4.8986 Log AC50 (M) and -4.9486 Log AC50 (M) | –
30 | O=C(NCCCN1CCCCCC1)c1cccc(-c2cc(O)c3ncccc3c2)c1 [NCGC00247760-01] | 20 µM | 15.9 µM | -4.8986 Log AC50 (M) and -4.7486 Log AC50 (M) | – | –
31 | c1ccc(CCn2nc(-c3ccccn3)nc2CCCN2CCCCC2)cc1 [NCGC00389173-01] | – | – | -5.2986 Log AC50 (M) and -5.0986 Log AC50 (M) and -5.4486 Log AC50 (M) | -5.2486 Log AC50 (M) and -5.3986 Log AC50 (M) and -5.0486 Log AC50 (M) | –
